From patent US5567711A, “Indole-3-carbonyl and indole-3-sulfonyl derivatives as platelet activating factor antagonists” (Abbott Laboratories, priority 1995, dated 1996)
pKi: −log10 of the molar value. Where a name gives a salt, the structure may show the parent alone.

Target: PAF receptor (Oryctolagus cuniculus, UniProt G1TEI7)
Assay: PAF receptor binding assay: inhibition of specific [^3 H]C18 -PAF binding to rabbit platelet membranes
Settings: not given

PAF receptor, sequence (G1TEI7 1-342): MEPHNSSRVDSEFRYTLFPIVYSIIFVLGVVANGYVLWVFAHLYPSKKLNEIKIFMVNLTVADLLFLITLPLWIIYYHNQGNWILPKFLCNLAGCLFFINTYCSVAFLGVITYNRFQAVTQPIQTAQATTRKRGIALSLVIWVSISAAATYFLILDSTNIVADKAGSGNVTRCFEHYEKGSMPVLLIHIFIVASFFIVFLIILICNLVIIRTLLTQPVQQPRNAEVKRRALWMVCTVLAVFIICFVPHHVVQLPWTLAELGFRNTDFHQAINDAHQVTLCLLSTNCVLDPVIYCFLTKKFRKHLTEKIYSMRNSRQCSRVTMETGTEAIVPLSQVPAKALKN

SMILES | pKi
CCOCCn1cc(C(=O)N2CCC(Cn3c(C)nc4cnccc43)CC2)c2ccc(-c3ccc(F)cc3)cc21 [Example 8, 1-(2-ethoxyethyl)-6-(4-fluorophenyl)-3-{[4-(1H-2-methylimidazo[4,5-c]pyrid-1-yl)methylpiperidin-1-yl]carbonyl}indole hydrochloride] | 8.92
CCOCCn1cc(C(=O)CN2CCC(n3c(C)nc4cnccc43)CC2)c2c(C(=O)OC)cccc21 [Example 23] | 8.28
CCOCCn1cc(C(=O)CN2CCC(n3c(C)nc4cnccc43)CC2)c2c(Cl)cccc21 [Example 25] | 8.00
CCOCCn1cc(C(=O)CN2CCC(n3c(C)nc4cnccc43)CC2)c2c(C)cccc21 [Example 28, 1-(2-ethoxyethyl)-4-methyl-3-{[4-(1H-2-methylimidazo[4.5-c]pyrid-1-yl)piperidin-1-yl]acetyl}indole] | 9.30

Same assay, conditions: @ 1.0 μM; rabbit platelet membranes; 0.6 nM [^3 H]C18 -PAF; 60 minutes at room temperature

inhibition at 1 µM [%] | SMILES
32 | Cc1nc2cnccc2n1C1CCN(S(=O)(=O)c2c[nH]c3cc(-c4ccc(F)cc4)ccc23)CC1 [Example 13, 6-(4-fluorophenyl)-3-{[4-(1H-2-methylimidazo[4.5-c]pyrid-1-yl)piperidin-1-yl]sulfonyl}indole]

Same assay, conditions: rabbit platelet membranes; 0.6 nM [^3 H]C18 -PAF; 60 minutes at room temperature; pH 7.0; Ki by Cheng and Prusoff from IC50

SMILES | pKi
CCOCCn1cc(C(=O)N2CCC(Cn3c(C)nc4cnccc43)CC2)c2c(Cl)cccc21 [Example 9, 1-(2-ethoxyethyl)-4-chloro-3-{[4-(1H-2-methylimidazo[4.5-c]pyrid-1-yl)methylpiperidin-1-yl]carbonyl}indole hydrochloride] | 7.54

Same assay, conditions: rabbit platelet membranes; 0.6 nM [^3 H]C18 -PAF; 60 minutes at room temperature; pH 7.0; Ki by Cheng and Prusoff from IC50; read-out: Ki

pKi | SMILES
8.48 | Cc1nc2cnccc2n1C1CCN(C(=O)c2cn(C(=O)N(C)C)c3cc(-c4ccc(F)cc4)ccc23)CC1 [Example 1, 6-(4-fluorophenyl)-3-{[4-(1H-2-methylimidazo[4.5-c]pyrid-1-yl)piperidin-1-yl]carbonyl)indole-1-carboxylic acid dimethyl amide hydrochloride]
7.36 | Cc1nc2cnccc2n1C1CCN(C(=O)c2c[nH]c3cc(-c4ccc(F)cc4)ccc23)CC1 [Example 2, 6-(4-fluorophenyl)-3-{[4-(1H-2-methylimidazo[4.5-c]pyrid-1-yl)piperidin-1-yl]carbonyl}indole hydrochloride]
7.00 | Cc1nc2cnccc2n1C1CCN(C(=O)c2c[nH]c3ccccc23)CC1 [Example 3, 3-{[4-(1H-2-methylimidazo[4,5-c]pyrid-1-yl)piperidin-1-yl]carbonyl}indole hydrochloride]
6.85 | COC(=O)c1cccc2c1c(C(=O)N1CCC(n3c(C)nc4cnccc43)CC1)cn2C(=O)N(C)C [Example 4, 3-{[4-(1H-2-methylimidazo[4.5-c]pyrid-1-yl)piperidin-1-yl]carbonyl}indole-1,4-dicarboxylic acid 1-dimethyl amide-4-methyl ester hydrochloride]
7.13 | COC(=O)c1cccc2c1c(C(=O)N1CCC(Cn3c(C)nc4cnccc43)CC1)cn2C(=O)N(C)C [Example 5, 1-N,N-dimethylcarbamoyl-4-methoxycarbonyl-3-{[4-(1H-2-methylimidazo[4.5-c]pyrid-1-yl)methylpiperidin-1-yl]carbonyl}indole-1,4-dicarboxylic acid 1-dimethyl amide-4-methyl ester hydrochloride]
8.60 | Cc1nc2cnccc2n1CC1CCN(C(=O)c2cn(C(=O)N(C)C)c3cc(-c4ccc(F)cc4)ccc23)CC1 [Example 6, 6-(4-fluorophenyl)-3-{[4-(1H-2-methylimidazo[4.5-c]pyrid-1-yl)methylpiperidin-1-yl]carbonyl}indole-1-carboxylic acid dimethyl amide hydrochloride]
7.74 | Cc1nc2cnccc2n1CC1CCN(C(=O)c2cn(C(=O)N(C)C)c3cccc(Cl)c23)CC1 [Example 7, 4-chloro-3-{[4-(1H-2-methylimidazo[4.5-c]pyrid-1-yl)methylpiperidin-1-yl]carbonyl}indole-1-carboxylic acid dimethyl amide hydrochloride]
6.70 | COC(=O)c1cccc2c1c(C(=O)N1CCN(CCn3c(C)nc4cnccc43)CC1)cn2C(=O)N(C)C [Example 10, 3-[{4-[(2-(1H-2-methylimidazo[4.5-c]pyrid-1-yl)ethyl]piperazin-1-yl}carbonyl]indole-1,4-dicarboxylic acid 1-dimethyl amide 4-methyl ester hydrochloride]
7.52 | Cc1nc2cnccc2n1CCN1CCN(C(=O)c2cn(C(=O)N(C)C)c3cc(-c4ccc(F)cc4)ccc23)CC1 [Example 11, 6-(4-fluorophenyl)-3-[{4-[(2-(1H-2-methylimidazo[4.5-c]pyrid-1-yl)ethyl]piperazin-1-yl}carbonyl]indole-1-carboxylic acid dimethyl amide hydrochloride]
6.47 | Cc1nc2cnccc2n1C1CCN(S(=O)(=O)c2cn(C(=O)OC(C)(C)C)c3cc(-c4ccc(F)cc4)ccc23)CC1 [Example 12, 6-(4-fluorophenyl)-3-{[4-(1H-2-methylimidazo[4.5-c]pyrid-1-yl)piperidin-1-yl]sulfonyl}indole-1-carboxylic acid t-butyl ester]
6.92 | Cc1nc2cnccc2n1C1CCN(S(=O)(=O)c2cn(C(=O)N(C)C)c3cc(-c4ccc(F)cc4)ccc23)CC1 [Example 14, 6-(4-fluorophenyl)-3-{[4-(1H-2-methylimidazo[4.5-c]pyrid-1-yl)piperidin-1-yl]sulfonyl}indole-1-carboxylic acid dimethyl amide hydrochloride]
7.19 | Cc1nc2cnccc2n1CC1CCN(S(=O)(=O)c2cn(C(=O)OC(C)(C)C)c3cc(-c4ccc(F)cc4)ccc23)CC1 [Example 15, 6-(4-fluorophenyl)-3-{[4-(1H-2-methylimidazo[4.5-c]pyrid-1-yl)methylpiperidin-1-yl]sulfonyl)indole-1-carboxylic acid t-butyl ester]
6.60 | Cc1nc2cnccc2n1CC1CCN(S(=O)(=O)c2c[nH]c3cc(-c4ccc(F)cc4)ccc23)CC1 [Example 16, 6-(4-fluorophenyl)-3-{[4-(1H-2-methylimidazo[4.5-c]pyrid-1-yl)methylpiperidin-1-yl]sulfonyl}indole]
8.92 | Cc1nc2cnccc2n1CC1CCN(S(=O)(=O)c2cn(C(=O)N(C)C)c3cc(-c4ccc(F)cc4)ccc23)CC1 [Example 17, 6-(4-fluorophenyl)-3-{[4-(1H-2-methylimidazo[4.5-c]pyrid-1-yl)methylpiperidin-1-yl]sulfonyl}indole-1-carboxylic acid dimethyl amide]
6.96 | Cc1nc2cnccc2n1CCN1CCN(S(=O)(=O)c2cn(C(=O)N(C)C)c3cc(-c4ccc(F)cc4)ccc23)CC1 [Example 18]
7.02 | Cc1nc2cnccc2n1C1CCN(CC(=O)c2c[nH]c3cc(-c4ccc(F)cc4)ccc23)CC1 [Example 19, 6-(4-fluorophenyl)-3-{[4-(1H-2-methylimidazo[4.5-c]pyrid-1-yl)piperidin-1-yl]acetyl}indole]
8.60 | Cc1nc2cnccc2n1C1CCN(CC(=O)c2cn(C(=O)N(C)C)c3cc(-c4ccc(F)cc4)ccc23)CC1 [Example 20]
7.85 | COC(=O)c1cccc2[nH]cc(C(=O)CN3CCC(n4c(C)nc5cnccc54)CC3)c12 [Example 21, 3-{[4-(1H-2-methylimidazo[4.5-c]pyrid-1-yl)piperidin-1-yl]acetyl}indole-4-carboxylic acid methy ester]
7.92 | COC(=O)c1cccc2c1c(C(=O)CN1CCC(n3c(C)nc4cnccc43)CC1)cn2C(=O)N(C)C [Example 22, 3-{[4-(1H-2-methylimidazo[4.5-c]pyrid-1-yl)piperidin-1-yl]acetyl}indole-1,4-dicarboxylic acid 1-dimethyl amide 4-methyl ester]
7.52 | Cc1nc2cnccc2n1C1CCN(CC(=O)c2c[nH]c3cccc(Cl)c23)CC1 [Example 24, 4-chloro-3-{[4-(1H-2-methylimidazo[4.5-c]pyrid-1-yl)piperidin-1-yl]acetyl}indole]
7.92 | Cc1nc2cnccc2n1C1CCN(CC(=O)c2cn(C(=O)N(C)C)c3cccc(Cl)c23)CC1 [Example 26, 4-chloro-3-{[4-(1H-2-methylimidazo[4.5-c]pyrid-1-yl)piperidin-1-yl]acetyl}indole-1-carboxylic acid dimethyl amide]
7.15 | Cc1cccc2[nH]cc(C(=O)CN3CCC(n4c(C)nc5cnccc54)CC3)c12 [Example 27, 4-methyl-3-{[4-(1H-2-methylimidazo[4.5-c]pyrid-1-yl)piperidin-1-yl]acetyl}indole]
8.70 | Cc1cccc2c1c(C(=O)CN1CCC(n3c(C)nc4cnccc43)CC1)cn2C(=O)N(C)C [Example 29, 4-methyl-3-{[4-(1H-2-methylimidazo[4.5:c]pyrid-1-yl)piperidin-1-yl]acetyl}indole-1-carboxylic acid dimethyl amide]
8.62 | COC(=O)c1cccc2c1c(C(=O)[C@H]1CC[C@H](Cn3c(C)nc4cnccc43)CC1)cn2C(=O)N(C)C [Example 30, 3-{[trans-4-[(1H-2-methylimidazo[4.5-c]pyrid-1-yl)methylcyclohex-1-yl]carbonyl}indole-1,4-dicarboxylic acid 1-dimethyl amide 4-methyl ester hydrochloride]
